Experimental data published in patent publication EP1914304A1 (priority 1998, dated 1999).
pIC50: −log10 of the molar value.

Tests used:
[1] = test system: ts13 BHK tk- cells transfected with pCMV:HSVTK (wild-type HSV-1 TK); assay: Cell killing by GCV and ACV, Alamar Blue viability (ED50); format: cell-based, baby hamster; conditions: Mesocricetus auratus, 96 h; effective dose for 50% cell killing, after 4 days on nucleoside analog, pooled G418 resistant clones
Description: (§1) Briefly, the cell transfections are performed as follows. Approximately 5 x 10^5 ts13 BHK tk cells (ATCC CRL-1632) are plated on 100mm dishes in DMEM + 10% calf serum. For each transfection 1 µg of pSV2neo and 10µg of a pCMV construct (pCMV, pCMV:TK-wrong (HSVTK in the wrong orientation relative to the promoter), pCMV:HSVTK, pCMV:30, pCMV:75 or pCMV:132 DNA) in 0.25M CaCl2 are mixed with 0.5ml 2 x BBS (see Chen and Okayama) and preincubated at 37°C at 2.5% CO2 for […]. The CaCl2/DNA mix is added dropwise to the plates and mixed in well. After a 24 hour incubation at 37°C in a 2.5% CO2 wet incubator, the cells are rinsed twice with Dulbecco PBS minus Ca/Mg and fed with fresh DMEM + 10% calf serum. Plates are incubated at 37°C with 6% CO2. After 72 hours post-transfection the cells are split 1:3 and plated in DMEM + 10% calf serum containing G418 at 600µg/ml.
(§2) The cells are selected on G418 (600µg/ml) at 37°C for 17 days. […]. Approximately 30-40 clones are selected in this manner for each transfected DNA containing a tk gene in the correct orientation. The pCMV and pCMV:TK-wrong transfections yielded between 130 and 140 clones each. G418 resistant clones are harvested, pooled and plated at a density of 2000 cells/well in 100µl DMEM + 10% calf serum and 200µg/ml G418 + 6% CO2 in 96 well microtiter plates. […]. After three days in the presence of the nucleoside analog, Alamar Blue is added and 6 hours later the plates are scanned using a fluorometer as according to the manufacturer's protocol (Alamar Biosciences, Inc., Sacramento, CA). The plates are incubated a further 24 hours at 37°C and scanned again.
(§3) Determination of the fluorescence level of cells incubated in the presence of Alamar Blue directly relates to cell viability.

[2] = test system: ts13 BHK tk- cells transfected with pCMV:75 (HSV-1 TK mutant 75); assay: as above; format: cell-based, baby hamster; conditions: Mesocricetus auratus, 96 h; effective dose for 50% cell killing, after 4 days on nucleoside analog, pooled G418 resistant clones
Description: as §1, §2, §3

[3] = test system: ts13 BHK tk- cells transfected with pCMV:132 (HSV-1 TK mutant 132); assay: as above; format: cell-based, baby hamster; conditions: Mesocricetus auratus, 96 h; effective dose for 50% cell killing, after 4 days on nucleoside analog, pooled G418 resistant clones
Description: as §1, §2, §3

[4] = test system: ts13 BHK tk- cells transfected with pCMV:30 (HSV-1 TK mutant 30); assay: as above; format: cell-based, baby hamster; conditions: Mesocricetus auratus, 96 h; effective dose for 50% cell killing, after 4 days on nucleoside analog, pooled G418 resistant clones
Description: as §1, §2, §3

[5] = test system: rat C6 glioblastoma cells transfected with TK mutant SR39, subcutaneous tumor; assay: Mouse xenograft tumor model with prodrug treatment; format: in vivo, Nude mice; conditions: prodrug twice a day for 5 days from day 5; Figures 32-34
Description: (§4) Rat C6 glioblastoma cells were transfected with the stable expression vector pREP8D7:dualGFP as described above containing various TK mutants. […] Experiments were carried out to establish prodrug dosing levels for tumor ablation and efficacy of therapy. Nude mice (JAX Labs, Bar Harbor, Maine) were injected subcutaneously with 0.5 x10^6 transfected rat C6 cells. After 5 days, prodrugs (ACV and GCV) were administered twice a day for a further 5 days. Prodrug was given at either of two concentrations (shown as mg/kg). During this period and for an additional 6 days, tumor size was monitored by caliper measurement every other day. At the end of the period, mice were sacrificed and the tumors excised and weighed.

[6] = test system: rat C6 glioblastoma cells transfected with TK mutant 30, subcutaneous tumor; assay: Mouse xenograft tumor model with prodrug treatment; format: in vivo, Nude mice; conditions: prodrug twice a day for 5 days from day 5; Figures 32-34
Description: as §4

[7] = test system: rat C6 cells expressing gmk/TK-trunc fusion protein; assay: Ganciclovir dose response curve, fusion protein against wild-type TK; format: cell-based; conditions: Figure 31; fusion protein being the superior one
[8] = test system: Rat C6 cells expressing TK mutant 411; assay: Rat C6 kill curves with GCV and ACV; format: cell-based; conditions: Table VIII
Excerpt: (§5) The seven mutants were subcloned into the mammalian expression vector, pREP8D7:dualGFP. This vector contains a constitutive metallothionin promoter, which drives the expression of green flourescent protein (GFP), and an RSV LTR promoter, which stimulated expression of the TK mutants. The vector also contains a histidinol resistance gene for selection of transformants. Purified vector DNA of these constructs was used to transfect BHK tk- cells by electroporation. The transfectants were selected by resistance to histidinol and sorted using FACS analysis for GFP expression. Pools of transfectants were then assayed for sensitivity to GCV or ACV over a range of prodrug doses. […] Table VIII illustrates the IC50 values from Rat C6 kill curves with the SR11, SR26, and SR39 mutants.

[9] = test system: Rat C6 cells expressing TK mutant 30; assay: Rat C6 kill curves with GCV and ACV; format: cell-based; conditions: Table VIII
Excerpt: as §5

[10] = test system: Rat C6 cells expressing TK mutant SR26; assay: Rat C6 kill curves with GCV and ACV; format: cell-based; conditions: Table VIII
Excerpt: as §5

[11] = test system: Rat C6 cells expressing TK mutant SR39; assay: Rat C6 kill curves with GCV and ACV; format: cell-based; conditions: Table VIII
Excerpt: as §5

[12] = test system: Rat C6 cells expressing TK mutant SR11; assay: Rat C6 kill curves with GCV and ACV; format: cell-based; conditions: Table VIII
Excerpt: as §5

[13] = test system: Rat C6 cells expressing wild-type TK; assay: Rat C6 kill curves with GCV and ACV; format: cell-based; conditions: Table VIII
Excerpt: as §5

[14] = test system: Rat C6 cells expressing TK mutant 75; assay: Rat C6 kill curves with GCV and ACV; format: cell-based; conditions: Table VIII
Excerpt: as §5

[15] = target: T1, HSV-1 thymidine kinase mutant 75 (LIF-ALL library, codons 159-161 and 168-170 randomized; pET23d:75) (Human herpesvirus 1, UniProt P0DTH5); conditions: Table V
T1 sequence (P0DTH5 1-376): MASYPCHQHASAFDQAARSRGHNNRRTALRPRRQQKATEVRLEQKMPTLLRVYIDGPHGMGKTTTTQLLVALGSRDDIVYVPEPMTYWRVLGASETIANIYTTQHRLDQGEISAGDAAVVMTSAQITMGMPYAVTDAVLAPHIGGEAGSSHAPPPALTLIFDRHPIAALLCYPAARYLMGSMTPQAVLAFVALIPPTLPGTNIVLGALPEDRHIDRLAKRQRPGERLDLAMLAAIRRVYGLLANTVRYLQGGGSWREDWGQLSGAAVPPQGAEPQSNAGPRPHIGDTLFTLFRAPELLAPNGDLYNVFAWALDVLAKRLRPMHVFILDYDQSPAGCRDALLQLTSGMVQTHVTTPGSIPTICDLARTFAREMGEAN
Description: The culture is incubated at 37°C overnight. The following day the 5ml culture is used to inoculate 1L M9ZB + cabenicillin at 20µg/ml and the culture allowed to grow at 37°C to OD600 0.1. At that point IPTG is added to 0.4mM and the culture incubated a further 3 hours. The cells are chilled on ice, pelleted by centrifugation and the pellets washed once in cell wash buffer (50mM Tris, pH 7.5, 5mM EDTA, 10% sucrose) prior to freezing the pellets at -70°C. The next day the cells are resuspended in 12ml Buffer 1 (50mM Tris, pH 7.5, 10% sucrose, 2mM DTT, 5mM EDTA, 1mM PMSF) and the volume split into two 13ml Oakridge ultracentrifuge tubes. 1ml Buffer 1 containing 3mg lysozyme is added to each tube and the tubes left on ice for 1 hr. […] The cleared supernatant is then aliquoted and frozen at -70°C.
The 1ml bed volume column is prepared by passing 10ml Buffer 1 followed by 10ml Absorption Buffer (50mM Tris, pH 7.5, 10% sucrose, 2mM DTT, 25mM MgAc2, 10mM ATP) over the column. Two ml of the cleared lysate is mixed with 2 ml of Absorption Buffer and passed through a 0.2µm filter. This mix is passed over the column 3 times. The column is washed with 5ml Absorption buffer three times and the 5ml fractions collected. […] The column is reactivated by loading on 10ml High Salt Buffer (50mM Tris, pH 7.5, 10% sucrose, 2mM DTT, 0.5M KCl) and 10ml 50mM Tris, pH 7.5. The column is stored in 50mM Tris pH 7.5 + 0.004% sodium azide. The extent of purification is monitored by Coomassie stained SDS:PAGE analysis and the concentration of purified protein determined using the BioRad Reagent (Bradford Reagent).
Km and Vmax values are determined from double reciprocal plots and kcat values are calculated using the equation Vmax = kcat [Eo] where [Eo] is the total enzyme concentration. The BioRad reagent was used to determine the total enzyme concentration of purified thymidine kinase enzymes.

[16] = target: gmk/TK-fl fusion protein (murine guanylate kinase fused to the entire wild-type HSV-1 TK; pET23d:gmk/TK-fl) (UniProt P0DTH5+Q64520); conditions: Table X; purified from E. coli
[17] = target: gmk/TK-trunc fusion protein (murine guanylate kinase fused to wild-type HSV-1 TK without its first nine amino acids; pET23d:gmk/TK-trunc) (UniProt P0DTH5+Q64520); conditions: Table X; purified from E. coli

| Compound | pIC50 [1] | pIC50 [2] | pIC50 [3] | pIC50 [4] | tumor reduction (tumor diameter, final tumor weight) [5] | tumor reduction (tumor diameter, final tumor weight) [6] | difference in IC50 between fusion protein and wild-type TK [7] [fold] | pIC50 [8] | pIC50 [9] | pIC50 [10] | pIC50 [11] | pIC50 [12] | pIC50 [13] | pIC50 [14] | Km ([15]; double reciprocal plots) [µM] | kcat ([15]; per active site) | Km [16] [µM] | Km [17] [µM] |
| --- | --- | --- | --- | --- | --- | --- | --- | --- | --- | --- | --- | --- | --- | --- | --- | --- | --- | --- |
| Nc1nc(O)c2ncn(COC(CO)CO)c2n1 [ganciclovir] | 4.70 | 6.33 | 4.74 | 5.36 | significant tumor reduction | significant tumor reduction | 100 | 7.00 | 8.00 | 7.40 | 7.77 | 6.82 | 5.30 | < 6.00 | 10 | .050 s⁻¹ |  |  |
| Nc1nc2c(ncn2[C@H]2C[C@H](O)[C@@H](COP(=O)(O)O)O2)c(=O)[nH]1 [dGMP] |  |  |  |  |  |  |  |  |  |  |  |  |  |  |  |  | 359 | 218 |
| Nc1nc2c(ncn2[C@@H]2O[C@H](COP(=O)(O)O)[C@@H](O)[C@H]2O)c(=O)[nH]1 [GMP] |  |  |  |  |  |  |  |  |  |  |  |  |  |  |  |  | 146 | 95 |
